Data published in patent US20170105969A1, “CENICRIVIROC FOR THE TREATMENT OF HIV-2 INFECTION” (Tobira Therapeutics, Inc., priority 2014, published 2017).
“Also recorded” adds a separate entry of the source. Marks after values point to notes of the source that are not given here.

Key:
CCR5 = CCR5 (Homo sapiens, UniProt P51681); test: CCR5 receptor occupancy / internalization in PBMCs by flow cytometry; type: cell-based
Protocol: (§1) The capacity of each drug to inhibit CCR5 or CCR2 internalization was evaluated. Cell-surface expression of CCR5 and CCR2 was assessed by flow cytometry, and fluorescence values were converted into molecules of equivalent soluble fluorescence (MESF).

CCR2 = biological target: T1, CCR2 (Homo sapiens, UniProt P41597); test: CCR2 receptor occupancy / internalization in PBMCs (monocytes) by flow cytometry; type: cell-based
T1 construct: endogenous in cells; host or cells: monocytes within PBMCs from 5 HIV+ and 5 HIV- subjects
T1 sequence (P41597 1-360 isoform P41597-2): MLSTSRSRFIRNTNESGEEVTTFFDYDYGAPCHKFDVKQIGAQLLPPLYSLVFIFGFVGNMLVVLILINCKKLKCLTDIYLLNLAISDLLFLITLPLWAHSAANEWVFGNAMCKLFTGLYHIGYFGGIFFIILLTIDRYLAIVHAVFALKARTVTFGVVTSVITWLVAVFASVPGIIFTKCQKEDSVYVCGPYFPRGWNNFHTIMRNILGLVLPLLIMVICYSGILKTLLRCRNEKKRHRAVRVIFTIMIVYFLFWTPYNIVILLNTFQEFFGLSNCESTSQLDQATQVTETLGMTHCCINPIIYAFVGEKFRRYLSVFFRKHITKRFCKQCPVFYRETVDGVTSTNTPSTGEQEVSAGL
Protocol: as §1

CCR3 = biological target: T2, CCR3 (Homo sapiens, UniProt P51677); test: Ligand binding to CCR3
T2 sequence (P51677 1-355): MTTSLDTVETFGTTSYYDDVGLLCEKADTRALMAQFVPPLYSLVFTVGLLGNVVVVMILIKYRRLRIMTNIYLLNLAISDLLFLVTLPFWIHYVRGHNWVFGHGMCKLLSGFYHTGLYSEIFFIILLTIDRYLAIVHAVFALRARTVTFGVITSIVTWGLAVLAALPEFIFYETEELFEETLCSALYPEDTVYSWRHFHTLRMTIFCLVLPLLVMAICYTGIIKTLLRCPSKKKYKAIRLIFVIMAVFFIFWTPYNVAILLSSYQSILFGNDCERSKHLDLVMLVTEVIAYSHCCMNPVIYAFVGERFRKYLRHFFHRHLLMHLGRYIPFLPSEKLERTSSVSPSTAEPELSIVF

CCR7 = biological target: T3, CCR7 (Homo sapiens, UniProt P32248); test: Ligand binding to CCR7
T3 sequence (P32248 25-378): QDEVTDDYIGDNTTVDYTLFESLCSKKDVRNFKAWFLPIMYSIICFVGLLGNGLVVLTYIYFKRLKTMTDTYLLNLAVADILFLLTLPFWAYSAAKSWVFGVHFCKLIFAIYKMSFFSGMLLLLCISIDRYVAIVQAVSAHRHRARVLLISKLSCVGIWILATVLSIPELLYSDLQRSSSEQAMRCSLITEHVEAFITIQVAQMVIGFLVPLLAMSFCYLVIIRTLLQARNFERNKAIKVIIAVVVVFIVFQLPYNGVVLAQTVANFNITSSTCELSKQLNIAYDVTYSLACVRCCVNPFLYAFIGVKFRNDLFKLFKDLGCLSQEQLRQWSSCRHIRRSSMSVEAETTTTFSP

[1] = system: RANTES-induced Ca2+ mobilization; test: RANTES-induced Ca2+ mobilization; type: cell-based
CCR5-tropic HIV-1 = test: Study 201: plasma HIV-1 RNA over 10 days of CVC monotherapy; type: in vivo, human; details: for subjects who achieved HIV-1 RNA levels <400 copies/mL: over the entire study; for HIV-1 RNA, LS mean (SEM) change from Baseline / HIV-1 RNA, Median change from Baseline: Day 11
Protocol: Subjects were antiretroviral treatment experienced, CCR5 antagonist-naïve, with HIV-1 RNA levels of at least 5000 copies/mL and CD4+ cell counts of at least 250 cells/mm^3. Subjects with HIV-2, hepatitis B virus, or hepatitis C virus co-infection or dual/mixed-tropic HIV-1 were ineligible. Other than their HIV-1 infection, subjects were generally healthy.
In this study, all dose groups received the original formulation (DP3_25), except the 100 mg dose group which received an alternative formulation (DP4_100). […] These subjects were excluded from the efficacy, PK, and PK/PD data, but included in the baseline and safety data. In this study, safety and tolerability were assessed by monitoring AEs, vital signs, ECGs, clinical laboratory values from blood and urine, and physical examinations. Data from all subjects on placebo were pooled for the analyses.

HIV-1 [2] = test: Study 202: virologic response (plasma HIV-1 RNA <50 copies/mL), Snapshot algorithm, ITT; type: in vivo, human; details: Week 24
From the text: The primary efficacy endpoint was the percentage of subjects with plasma HIV-1 RNA <50 copies/mL at Week 24 (using the FDA Snapshot algorithm and the ITT population).

HIV-1 [3] = test: as above; type: in vivo, human

CCR5, sequence (P51681 whole entry): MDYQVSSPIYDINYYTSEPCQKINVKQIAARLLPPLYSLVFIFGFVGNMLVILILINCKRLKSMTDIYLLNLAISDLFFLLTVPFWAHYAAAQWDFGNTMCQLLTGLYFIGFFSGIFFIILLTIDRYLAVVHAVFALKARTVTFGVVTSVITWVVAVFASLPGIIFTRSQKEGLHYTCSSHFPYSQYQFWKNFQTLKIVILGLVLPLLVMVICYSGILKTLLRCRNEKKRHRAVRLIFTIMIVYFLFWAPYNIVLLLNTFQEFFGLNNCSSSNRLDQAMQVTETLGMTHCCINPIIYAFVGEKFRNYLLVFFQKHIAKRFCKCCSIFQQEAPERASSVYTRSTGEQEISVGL

CCCCOCCOc1ccc(-c2ccc3c(c2)/C=C(/C(=O)Nc2ccc([S@@+]([O-])Cc4cncn4CCC)cc2)CCCN3CC(C)C)cc1 [CVC, (S)-8-[4-(2-Butoxyethoxy)phenyl]-1-isobutyl-N-(4-{[(1-propyl-1H-imidazol-5-yl)methyl]sulfinyl}phenyl)-1,2,3,4-tetrahydro-1-benzazocine-5-carboxamide]
effective concentration at which saturation of CCR5 was reached (CCR5; CD4+ T cells): 3.1 nM | concentration achieving ≧90% receptor occupancy for CCR5 (CCR5; CD4+ T-cells ex vivo in humans): 3.1 nM | effective concentration at which saturation of CCR5 was reached (CCR5; CD8+ T cells): 2.3 nM | concentration achieving ≧90% receptor occupancy for CCR5 (CCR5; CD8+ T-cells ex vivo in humans): 2.3 nM | prevention of RANTES-induced CCR5 internalization (in words) (CCR5; PBMCs): at lower effective concentrations than MVC | cell-surface expression of CCR5 (in words) (CCR5; in the absence of RANTES, PBMCs): increased cell-surface expression of CCR5 | average concentration required to reach >80% receptor occupancy (CCR2; CCR2, monocytes): 1.8 nM | prevention of MCP-1-induced CCR2 internalization (in words) (CCR2; PBMCs): at lower concentrations than BMS-22 | CCR2 cell-surface expression (in words) (CCR2; in the absence of MCP-1, monocytes): induced CCR2 internalization and decreased cell-surface expression on monocytes; also recorded: reduced CCR2 expression on monocytes | concentration at which saturation of monocyte CCR2 was reached (CCR2; monocytes): 6 nM | receptor occupancy at 0.006 µM (CCR2; monocytes, at 6 nM (saturation)): ~98% | inhibition of ligand binding (in words) (CCR3): weakly inhibited | inhibition of ligand binding (in words) (CCR7): did not inhibit | RANTES-induced Ca2+ mobilization (in words) [1]: blocked | HIV-1 RNA, Baseline LS mean (SEM) (CCR5-tropic HIV-1; 25 mg cohort, Baseline): 4.46 (0.18) log10 copies/mL | subjects who achieved HIV-1 RNA levels <400 copies/mL (CCR5-tropic HIV-1; 25 mg dose group): 1 | HIV-1 RNA, Nadir values, Median change from Baseline (CCR5-tropic HIV-1; 25 mg once daily): −0.7 log10 copies/mL | Median days to nadir (CCR5-tropic HIV-1; 25 mg once daily): 10.0 days | HIV-1 RNA, LS mean (SEM) change from Baseline (CCR5-tropic HIV-1; 25 mg once daily): −0.64 (0.14) log10 copies/mL | HIV-1 RNA, Median change from Baseline (CCR5-tropic HIV-1; 25 mg once daily): −0.5 log10 copies/mL | HIV-1 RNA, Baseline LS mean (SEM) (CCR5-tropic HIV-1; 50 mg cohort, Baseline): 4.33 (0.21) log10 copies/mL | subjects who achieved HIV-1 RNA levels <400 copies/mL (CCR5-tropic HIV-1; 50 mg dose group): 2 | HIV-1 RNA, Nadir values, Median change from Baseline (CCR5-tropic HIV-1; 50 mg once daily): −1.6 log10 copies/mL | Median days to nadir (CCR5-tropic HIV-1; 50 mg once daily): 11.0 days | HIV-1 RNA, LS mean (SEM) change from Baseline (CCR5-tropic HIV-1; 50 mg once daily): −1.13 (0.16) log10 copies/mL | HIV-1 RNA, Median change from Baseline (CCR5-tropic HIV-1; 50 mg once daily): −1.3 log10 copies/mL | HIV-1 RNA, Baseline LS mean (SEM) (CCR5-tropic HIV-1; 75 mg cohort, Baseline): 4.65 (0.19) log10 copies/mL | HIV-1 RNA, Nadir values, Median change from Baseline (CCR5-tropic HIV-1; 75 mg once daily): −1.8 log10 copies/mL | Median days to nadir (CCR5-tropic HIV-1; 75 mg once daily): 10.0 days | HIV-1 RNA, LS mean (SEM) change from Baseline (CCR5-tropic HIV-1; 75 mg once daily): −1.46 (0.15) log10 copies/mL | HIV-1 RNA, Median change from Baseline (CCR5-tropic HIV-1; 75 mg once daily): −1.6 log10 copies/mL | HIV-1 RNA, Baseline LS mean (SEM) (CCR5-tropic HIV-1; 150 mg cohort, Baseline): 4.10 (0.19) log10 copies/mL | subjects who achieved HIV-1 RNA levels of <50 copies/mL (CCR5-tropic HIV-1; 150 mg dose group): 2 | subjects who achieved HIV-1 RNA levels <400 copies/mL (CCR5-tropic HIV-1; 150 mg dose group): 3 | HIV-1 RNA, Nadir values, Median change from Baseline (CCR5-tropic HIV-1; 150 mg once daily): −1.7 log10 copies/mL | Median days to nadir (CCR5-tropic HIV-1; 150 mg once daily): 11.0 days | HIV-1 RNA, LS mean (SEM) change from Baseline (CCR5-tropic HIV-1; 150 mg once daily): −1.42 (0.16) log10 copies/mL | HIV-1 RNA, Median change from Baseline (CCR5-tropic HIV-1; 150 mg once daily): −1.5 log10 copies/mL | drug resistance testing (in words) (CCR5-tropic HIV-1; Baseline, Day 7, Day 40, all subjects with evaluable samples): remained fully susceptible | virologic non-response, subgroup with high baseline viral load (≧100,000 copies/mL) (HIV-1 [2]; CVC 100 mg): 20% | HIV-1 RNA ≧400 copies/mL (HIV-1 [2]; CVC 100 mg arm): (7%) | Treatment difference from EFV arm (HIV-1 [2]; CVC 100 mg arm): 5% | virologic non-response, subgroup with high baseline viral load (≧100,000 copies/mL) (HIV-1 [2]; CVC 200 mg): 29% | Discontinued study due to AE or death (HIV-1 [2]; CVC 200 mg arm): (2%) | HIV-1 RNA ≧50 but <400 copies/mL (HIV-1 [2]; CVC 200 mg arm): (7%)^e | Treatment difference from EFV arm (HIV-1 [2]; CVC 200 mg arm): 4% | HIV-1 RNA ≧50 but <400 copies/mL (HIV-1 [3]; Week 24, CVC 100 mg arm): (5%)^d | HIV-1 RNA ≧400 copies/mL (HIV-1 [3]; Week 24, CVC 200 mg arm): (7%) | virologic non-response, subgroup with high baseline viral load (≧100,000 copies/mL) (HIV-1 [3]; Week 48, CVC 100 mg): 20% | Treatment difference from EFV arm (HIV-1 [3]; Week 48, CVC 100 mg arm): 18% | virologic non-response, subgroup with high baseline viral load (≧100,000 copies/mL) (HIV-1 [3]; Week 48, CVC 200 mg): 21% | Discontinued study due to AE or death (HIV-1 [3]; Week 48, CVC 200 mg arm): (2%) | Treatment difference from EFV arm (HIV-1 [3]; Week 48, CVC 200 mg arm): 16% | Week 48 non-response, CVC-treated Black or African American subjects (HIV-1 [3]; Week 48, both CVC arms): 8-15%
